Test results as given in patent EP4817617A1, “LIPOSOME AGENT, NKT CELL ACTIVATOR, PHARMACEUTICAL COMPOSITION, AND USES OF THESE” (Ambicion Co., Ltd., priority 2023, dated 2025).

Test system: triple-negative breast cancer 4T1 cells
Assay: Antitumor effect of α-GalCer liposome against breast cancer by repetitive subcutaneous administration
Type: in vivo, BALB/c mouse
Settings: s.c. left flank, 4 times every 5 days, α-GalCer 15 µg; n=2 shown
Experimental: The following liposome samples prepared using PBS in Example 1 were used. • (1-2) 50% α-GalCer / negatively charged PEG terminal -OH liposome, 100 nm • (1-11) 0% control / negatively charged PEG terminal -OH liposome, 100 nm The liposome samples were adjusted to a PEGylated liposome concentration of 1 mg/mL (in terms of total lipids), and used as administration samples. PBS was used for the adjustment of the PEGylated liposome concentration. The administration sample prepared from the aforementioned (1-2) was used as the α-GalCer liposome administration sample of the Example (αGal lipo), and the administration sample prepared from the aforementioned (1-11) was used as the control liposome administration sample (Ctrl lipo). In addition, a free GalCer sample (Free αGal) in which free α-GalCer not formulated into a liposome was suspended in PBS, and PBS, were each used as administration samples.
As breast cancer cells, triple-negative breast cancer 4T1 cells were used. 4T1 cells (5.0×10^5 to 1.0×10^6 cells/mouse) were subcutaneously inoculated into the vicinity of the second teat from the top of the left chest of a BALB/c mouse (5 weeks old, female, n=2). When the average tumor volume reached 40 to 100 mm^3, the mice were randomly divided into groups. Then, the administration sample was subcutaneously injected into the left flank of the mouse (Day 0). […]

In the case of `CCCCCCCCCCCCCCCCCCCCCCCCCC(=O)N[C@@H](CO[C@H]1O[C@H](CO)[C@H](O)[C@H](O)[C@H]1O)[C@H](O)[C@H](O)CCCCCCCCCCCCCC` [α-GalCer, (2S,3S,4R)-1-O-(α-D-galactopyranosyl)-2-hexacosanoylamino-1,3,4-octadecanetriol], the “increase in tumor volume” value was “suppressed”.
